This note sets out measurements from patent publication US10292991B2, “Small molecule therapeutic compounds that reduce the incidence of intracerebral hemorrhage and brain microhemorrhages” (St. Michaels Hospital, priority 2016, dated 2019).

The subject of assay [1] is ICH induced by anti-β3 integrin serum in neonatal mice. Kind of assay: Anti-β3 integrin mouse model of intracerebral hemorrhage. The class given is in vivo, β3+/− mice (neonates). The text has this: An anti-β3 integrin model of intracerebral hemorrhage (ICH) was generated according to our previously reported methods (Yougbare I, Lang S, Yang H et al. Maternal anti-platelet beta3 integrins impair angiogenesis and cause intracranial hemorrhage. J Clin Invest 2015; 125:1545-1556). Briefly, serum containing anti-β3 antibodies was generated by immunizing β3−/− female mice with gel-filtered wild type platelets via tail-vein injections twice a week. To detect anti-β3 antibody, blood was collected from the saphenous vein of immunized female mice and left to clot. […]
For the integrin ICH model, brains were taken out of the skull, cut at the mid-coronal position and assessed in a binary manner for whether or not there was any evidence of ICH. […]
Brains were scanned using 7T Burker MRI with 16-channel solenoid coils. […] Following the reconstruction of images and applying image distortion correction algorithms, all brains were processed and analyzed for total volume of brain and total volume of hemorrhage. Quantification was done using percentage of bleeding (normalized to each brain size). […] Lastly, quantification was done in a blinded fashion. All quantifications and 3D reconstructions were performed using a combination of Display and Amira processing software.

The test system of a further assay is Integrin β3 (Itgb3) mRNA. In words: qRT-PCR of integrin β3 mRNA in atorvastatin-treated zebrafish larvae. The class given is in vivo, zebrafish (Danio rerio). Particulars: 1 μmol/L atorvastatin plus 500 nmol/L drug, n=3. As for the experimental part:
(§1) qRT-PCR was used to assess relative expression of selected genes (an average of two biological trial and three technical replicates and each trial is a pool of 60 larvae/treatment), using β-actin as the housekeeping gene control. 3 dpf, Tg(Flk:GFP; Gata:dsRed) zebrafish larvae were used for RNA extraction and cDNA synthesis. Atorvastatin and drug treatment were performed as previously mentioned in drug screening. Total RNA was extracted from these larvae (a pool of 50-60 larvae/treatment) using the RNeasy extraction kit (Qiagen, Mississauga, ON, CAN) and treated with DNase. The concentration of total RNA was determined spectrophotometrically at 260/280 nm using a NanoDrop™ spectrophotometer. First-strand cDNA was synthesized from 1 μg of total RNA using random hexamer primers.
(§2) In each case, forward primer is shown on the top and reverse primer on the bottom.
(§3) PCR was carried out in a 20 μl total volume and included 1×PCR buffer, 1.25 mM MgCl2, 0.25 mM dNTP, 1 U Taq polymerase, 0.5 μmol/L forward, and reverse primers and 1 μl cDNA.
(In qPCR the cycle at which signal appears reflects the starting amount.)

Assay [2] concerns Hmgcrb - splice morpholino-induced hemorrhage in zebrafish. In words: Hmgcrb morpholino-induced hemorrhage in zebrafish, rescue by drugs. Conditions: Danio rerio; Table 6. The class given is in vivo, zebrafish (Danio rerio). As for the experimental part:
Danieau buffer (58 mM NaCl, 0.7 mM KCl, 0.4 mM MgSO4, 0.6 mM Ca(NO3)2, 5.0 mM HEPES, pH 7.6) was used to dilute the MO solutions to 0.2 mM final concentration. Individual wells were placed on a 1.0% agarose plate, in which the embryos were positioned. Afterwards, the MO solution was injected through the cell yolk into embryos of 1 to 4 cell-stage. The injected quantities varied from 0.5 to 15 ng.
The first three morpholino pairs were good for the efficacy study. Efficacy assays were performed using Artemether (ARM, Sigma) and artemesunate (ART, GMP). […] Treating these morphants with the drugs rescued the ICH phenotype.

The test system of assay [3] is bbh mutant zebrafish (mutation in βPix), spontaneous ICH. In words: bbh (bubblehead) mutant genetic model of brain hemorrhage. The class given is in vivo, zebrafish (Danio rerio). Conditions: Danio rerio, read-out: EC50 to rescue brain hemorrhage, bbh Mutant Model. The text has this: A specific zebrafish line with a gene mutation called bubblehead (bbh) was used. This line has spontaneous ICH. Bubblehead phenotype is caused by a mutation in βPix. Adult homozygous zebrafish were viable and fertile. […] More than 85% of zebrafish larvae display an ICH phenotype.

For a further assay, the system named is VE-Cadherin (Cdh5) mRNA. Kind of assay: qRT-PCR of VE-cadherin mRNA in atorvastatin-treated zebrafish larvae. The class given is in vivo, zebrafish (Danio rerio). Particulars: 1 μmol/L atorvastatin plus 500 nmol/L drug, n=3. As for the experimental part: as §1, §2, §3

One may read the EC50 as the concentration that produces a half-maximal response.

Turning to `CO[C@H]1O[C@@H]2O[C@@]3(C)CC[C@H]4[C@H](C)CC[C@@H]([C@H]1C)[C@@]24OO3` [Artemether], the ICH incidence in assay [1] (25 mg/kg i.p. with anti-β3 sera at P2, n=24, model control 77%) was determined as 47%. Further, in assay [1] (preliminary data, data not shown, vs controls), the “Total volume of ICH (MRI)” value is reported as “reduced”. The “Integrin β3 transcription level (qRT-PCR)” value in the assay with Integrin β3 (Itgb3) mRNA is “upregulation”. Besides, the EC50 in assay [2] is 62.5 ± 8.3 nM; in assay [3], 37.5 nM. The “VE-cadherin transcription level (qRT-PCR)” value with VE-Cadherin (Cdh5) mRNA was “upregulation”.
